Measurements reported in patent US20080207529A1, “Isolated Dipeptides with Ace Inhibitor Effect” (CHR. HANSEN A/S, priority 2005, published 2008).

Molecular target: angiotensin-converting enzyme (ACE) (Homo sapiens, UniProt P12821)
Assay: BioSelact on-line ACE inhibitor bioassay (Kiadis)
Type: biochemical
Conditions: determined by the BioSelect method of Kiadis of aqueous extracts of the fat+cell fraction
Description: Supernatants of whole fermentations, whey liquids, chloroform and aqueous extracts from fat/cell fractions were all pH adjusted before analysis. First the solutions were adjusted to pH 3. After centrifugation the precipitate was removed. During a second step the pH was adjusted to 7.5 (pH of bioassay). Again precipitate was removed from the solution after centrifugation. The remaining supernatants were used for BioSelact analysis.
250 mg of fat/cell preparation was extracted with 250 μl MilliQ. The solution was positioned on a flat shaker for 2 hours at room temperature. The fat/cell fraction was removed after extraction by centrifugation.
During the first step of the BioSelact analysis, the aqueous solutions were analyzed by applying a general chromatographic gradient: 5-95% MeOH/0.05% TFA in 75 min. For these general analyses a Phenomenex, LUNA C18(2), 5 μm, 2*250 mm analytical column was used. The chromatographic separation was carried out at a flow rate of 0.2 ml/min at ambient temperature. The injection volume was 250 μl. The organic modifier concentration in the Liquid Chromatography (LC) effluent was decreased to bioassay compatible levels by performing continuous dilution using the BioGradient composition from Kiadis. […]
After completing the first general chromatographic ‘sweep’, the presence of bioactivity in each sample was carefully assessed by the Kiadis ACE inhibitor assay. […]

Chain of angiotensin-converting enzyme (ACE) (P12821 30-1306, species assumed): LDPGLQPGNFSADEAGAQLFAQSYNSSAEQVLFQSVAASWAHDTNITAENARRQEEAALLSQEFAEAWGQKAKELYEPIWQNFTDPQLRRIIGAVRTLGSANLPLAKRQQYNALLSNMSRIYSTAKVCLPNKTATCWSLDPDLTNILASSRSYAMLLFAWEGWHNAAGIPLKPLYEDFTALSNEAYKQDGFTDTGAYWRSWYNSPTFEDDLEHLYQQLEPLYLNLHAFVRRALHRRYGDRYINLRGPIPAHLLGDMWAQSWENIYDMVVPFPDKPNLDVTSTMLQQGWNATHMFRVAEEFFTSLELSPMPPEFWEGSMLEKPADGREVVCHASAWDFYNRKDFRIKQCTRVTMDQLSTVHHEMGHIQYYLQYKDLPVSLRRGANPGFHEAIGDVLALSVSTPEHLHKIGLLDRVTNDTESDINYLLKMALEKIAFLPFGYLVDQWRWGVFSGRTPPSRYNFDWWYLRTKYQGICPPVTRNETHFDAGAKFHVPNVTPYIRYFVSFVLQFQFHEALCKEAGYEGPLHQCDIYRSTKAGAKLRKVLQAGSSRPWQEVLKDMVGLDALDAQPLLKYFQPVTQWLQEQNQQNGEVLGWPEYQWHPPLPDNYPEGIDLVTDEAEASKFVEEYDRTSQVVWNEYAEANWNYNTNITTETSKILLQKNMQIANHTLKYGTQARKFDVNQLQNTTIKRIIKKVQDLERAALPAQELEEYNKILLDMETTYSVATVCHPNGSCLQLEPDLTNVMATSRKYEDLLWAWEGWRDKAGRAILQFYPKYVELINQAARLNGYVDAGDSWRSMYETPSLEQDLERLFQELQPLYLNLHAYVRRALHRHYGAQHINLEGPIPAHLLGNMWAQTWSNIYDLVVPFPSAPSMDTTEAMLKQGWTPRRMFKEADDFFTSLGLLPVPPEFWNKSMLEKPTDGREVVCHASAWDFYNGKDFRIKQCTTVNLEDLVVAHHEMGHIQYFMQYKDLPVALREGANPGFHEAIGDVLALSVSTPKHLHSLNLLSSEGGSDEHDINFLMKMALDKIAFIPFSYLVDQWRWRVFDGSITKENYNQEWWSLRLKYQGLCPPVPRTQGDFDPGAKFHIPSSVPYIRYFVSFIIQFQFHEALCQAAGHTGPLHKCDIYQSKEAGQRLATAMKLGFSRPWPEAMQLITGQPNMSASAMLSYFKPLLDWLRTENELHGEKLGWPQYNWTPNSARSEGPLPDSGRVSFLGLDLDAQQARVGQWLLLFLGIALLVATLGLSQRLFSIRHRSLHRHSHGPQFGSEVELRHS

- Relative inhibition (relative ACE inhibitory activity): 0.7%
Substance: Ile-Pro-Pro [IPP]
